ChEMBL document CHEMBL4482311, “Modulators of Prostate-Specific G-Protein Receptor (PSGR/OR51E2) and Methods of Using Same” (2018)
Activity calls are given as the source filed them.

Assays:
Assay type in all cases: cell-based
[1] = target: T1, Olfactory receptor 51E2 (Homo sapiens) (UniProt Q9H255); assay: Agonist activity at PSGR/OR51E2 in human LNCaP cells assessed as induction of change in extracellular metabolites level by measuring phenylalanine level at 250 uM incubated for 72 hrs by GC/MS analysis
T1 sequence (whole entry): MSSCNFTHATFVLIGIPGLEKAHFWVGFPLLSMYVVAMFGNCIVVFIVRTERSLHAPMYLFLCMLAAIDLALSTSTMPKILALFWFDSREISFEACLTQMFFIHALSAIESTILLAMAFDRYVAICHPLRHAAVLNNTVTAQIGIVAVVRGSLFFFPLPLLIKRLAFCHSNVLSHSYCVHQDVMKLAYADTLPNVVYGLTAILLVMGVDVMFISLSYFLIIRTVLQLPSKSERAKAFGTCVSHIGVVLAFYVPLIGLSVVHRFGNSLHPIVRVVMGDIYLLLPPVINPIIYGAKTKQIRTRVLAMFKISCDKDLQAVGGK

[2] = target: T1, Olfactory receptor 51E2 (Homo sapiens); assay: Agonist activity at PSGR/OR51E2 in human LNCaP cells assessed as induction of change in extracellular metabolites level by measuring serine level at 250 uM incubated for 72 hrs by GC/MS analysis
[3] = target: T1, Olfactory receptor 51E2 (Homo sapiens); assay: Agonist activity at PSGR/OR51E2 in human LNCaP cells assessed as induction of change in extracellular metabolites level by measuring lysine level at 250 uM incubated for 72 hrs by GC/MS analysis
[4] = target: T1, Olfactory receptor 51E2 (Homo sapiens); assay: Agonist activity at PSGR/OR51E2 in human LNCaP cells assessed as induction of change in extracellular metabolites level by measuring glycine level at 250 uM incubated for 72 hrs by GC/MS analysis
[5] = target: T1, Olfactory receptor 51E2 (Homo sapiens); assay: Agonist activity at PSGR/OR51E2 in human LNCaP cells assessed as induction of change in extracellular metabolites level by measuring glutaric acid level at 250 uM incubated for 72 hrs by GC/MS analysis
[6] = target: T1, Olfactory receptor 51E2 (Homo sapiens); assay: Agonist activity at PSGR/OR51E2 in human LNCaP cells assessed as induction of change in extracellular metabolites level by measuring cystine level at 250 uM incubated for 72 hrs by GC/MS analysis
[7] = target: T1, Olfactory receptor 51E2 (Homo sapiens); assay: Agonist activity at PSGR/OR51E2 in human LNCaP cells assessed as induction of change in extracellular metabolites level by measuring uric acid level at 250 uM incubated for 72 hrs by GC/MS analysis
[8] = target: T1, Olfactory receptor 51E2 (Homo sapiens); assay: Agonist activity at PSGR/OR51E2 in human LNCaP cells assessed as induction of change in extracellular metabolites level by measuring tyrosine level at 250 uM incubated for 72 hrs by GC/MS analysis
[9] = target: T1, Olfactory receptor 51E2 (Homo sapiens); assay: Agonist activity at PSGR/OR51E2 in human LNCaP cells assessed as induction of change in extracellular metabolites level by measuring xanthine level at 250 uM incubated for 72 hrs by GC/MS analysis
[10] = target: T1, Olfactory receptor 51E2 (Homo sapiens); assay: Agonist activity at PSGR/OR51E2 in human LNCaP cells assessed as induction of change in extracellular metabolites level by measuring guanine level at 250 uM incubated for 72 hrs by GC/MS analysis
[11] = target: T1, Olfactory receptor 51E2 (Homo sapiens); assay: Agonist activity at PSGR/OR51E2 in human LNCaP cells assessed as induction of change in extracellular metabolites level by measuring glutamine level at 250 uM incubated for 72 hrs by GC/MS analysis
[12] = target: T1, Olfactory receptor 51E2 (Homo sapiens); assay: Agonist activity at PSGR/OR51E2 in human LNCaP cells assessed as induction of change in extracellular metabolites level by measuring asparagine level at 250 uM incubated for 72 hrs by GC/MS analysis
[13] = target: T1, Olfactory receptor 51E2 (Homo sapiens); assay: Agonist activity at PSGR/OR51E2 in human LNCaP cells assessed as induction of change in extracellular metabolites level by measuring threose/erythrose level at 250 uM incubated for 72 hrs by GC/MS analysis
[14] = target: T1, Olfactory receptor 51E2 (Homo sapiens); assay: Agonist activity at PSGR/OR51E2 in human LNCaP cells assessed as induction of change in extracellular metabolites level by measuring alanine level at 250 uM incubated for 72 hrs by GC/MS analysis
[15] = target: T1, Olfactory receptor 51E2 (Homo sapiens); assay: Agonist activity at PSGR/OR51E2 in human LNCaP cells assessed as induction of change in extracellular metabolites level by measuring lactic acid level at 250 uM incubated for 72 hrs by GC/MS analysis
[16] = target: T1, Olfactory receptor 51E2 (Homo sapiens); assay: Agonist activity at PSGR/OR51E2 in human LNCaP cells assessed as induction of change in intracellular metabolites level by measuring pentonic-acids level at 250 uM incubated for 72 hrs by GC/MS analysis
[17] = target: T1, Olfactory receptor 51E2 (Homo sapiens); assay: Agonist activity at PSGR/OR51E2 in human LNCaP cells assessed as induction of change in intracellular metabolites level by measuring spermidine level at 250 uM incubated for 72 hrs by GC/MS analysis
[18] = target: T1, Olfactory receptor 51E2 (Homo sapiens); assay: Agonist activity at PSGR/OR51E2 in human LNCaP cells assessed as induction of change in intracellular metabolites level by measuring malic acid level at 250 uM incubated for 72 hrs by GC/MS analysis
[19] = target: T1, Olfactory receptor 51E2 (Homo sapiens); assay: Agonist activity at PSGR/OR51E2 in human LNCaP cells assessed as induction of change in intracellular metabolites level by measuring serine level at 250 uM incubated for 72 hrs by GC/MS analysis
[20] = target: T1, Olfactory receptor 51E2 (Homo sapiens); assay: Agonist activity at PSGR/OR51E2 in human LNCaP cells assessed as induction of change in intracellular metabolites level by measuring threonine level at 250 uM incubated for 72 hrs by GC/MS analysis
[21] = target: T1, Olfactory receptor 51E2 (Homo sapiens); assay: Agonist activity at PSGR/OR51E2 in human LNCaP cells assessed as induction of change in intracellular metabolites level by measuring ethanolamine level at 250 uM incubated for 72 hrs by GC/MS analysis
[22] = target: T1, Olfactory receptor 51E2 (Homo sapiens); assay: Agonist activity at PSGR/OR51E2 in human LNCaP cells assessed as induction of change in intracellular metabolites level by measuring oleic acid level at 250 uM incubated for 72 hrs by GC/MS analysis
[23] = target: T1, Olfactory receptor 51E2 (Homo sapiens); assay: Agonist activity at PSGR/OR51E2 in human LNCaP cells assessed as induction of change in intracellular metabolites level by measuring inosine level at 250 uM incubated for 72 hrs by GC/MS analysis
[24] = target: T1, Olfactory receptor 51E2 (Homo sapiens); assay: Agonist activity at PSGR/OR51E2 in human LNCaP cells assessed as induction of change in intracellular metabolites level by measuring glucose-6-phosphate level at 250 uM incubated for 72 hrs by GC/MS analysis
[25] = target: T1, Olfactory receptor 51E2 (Homo sapiens); assay: Agonist activity at PSGR/OR51E2 in human LNCaP cells assessed as induction of change in intracellular metabolites level by measuring lactic acid level at 250 uM incubated for 72 hrs by GC/MS analysis
[26] = target: T1, Olfactory receptor 51E2 (Homo sapiens); assay: Agonist activity at PSGR/OR51E2 in human LNCaP cells assessed as induction of change in intracellular metabolites level by measuring ornithine level at 250 uM incubated for 72 hrs by GC/MS analysis
[27] = target: T1, Olfactory receptor 51E2 (Homo sapiens); assay: Agonist activity at PSGR/OR51E2 in human LNCaP cells assessed as induction of change in intracellular metabolites level by measuring beta-alanine level at 250 uM incubated for 72 hrs by GC/MS analysis
[28] = target: T1, Olfactory receptor 51E2 (Homo sapiens); assay: Agonist activity at PSGR/OR51E2 in human LNCaP cells assessed as induction of change in intracellular metabolites level by measuring fumaric acid level at 250 uM incubated for 72 hrs by GC/MS analysis
[29] = target: T1, Olfactory receptor 51E2 (Homo sapiens); assay: Agonist activity at PSGR/OR51E2 in human LNCaP cells assessed as induction of change in intracellular metabolites level by measuring O-methylphosphate level at 250 uM incubated for 72 hrs by GC/MS analysis
[30] = target: T1, Olfactory receptor 51E2 (Homo sapiens); assay: Agonist activity at PSGR/OR51E2 in human LNCaP cells assessed as induction of change in intracellular metabolites level by measuring 3-phosphoglyceric acid level at 250 uM incubated for 72 hrs by GC/MS analysis

Measured: Activity

COc1ccc(NC=O)c(C(=O)CCNC(C)=O)c1
active: [1] | [2] | [3] | [4] | [5] | [6] | [7] | [8] | [9] | [10] | [11] | [12] | [13] | [14] | [15] | [16] | [17] | [18] | [19] | [20] | [21] | [22] | [23] | [24] | [25] | [26] | [27] | [28] | [29] | [30]
